Assay results from PMC5520994 (Science signaling, 2017).
“Also recorded” adds a separate entry of the source. Where two headings read alike, the source gives them in different places. Each block holds one molecule with its values, some of them ahead of it.

Key:
[1] = target: IL-17A/IL-17RA binding (Homo sapiens, UniProt Q96F46); assay: Ligand-receptor binding inhibition assay
[2] = target: IL-17RA (WT) (Homo sapiens, UniProt Q96F46); assay: Fluorescence quenching assay of A18 binding to labeled IL-17RA
IL-17RA (WT), sequence (Q96F46 33-320 limits assumed): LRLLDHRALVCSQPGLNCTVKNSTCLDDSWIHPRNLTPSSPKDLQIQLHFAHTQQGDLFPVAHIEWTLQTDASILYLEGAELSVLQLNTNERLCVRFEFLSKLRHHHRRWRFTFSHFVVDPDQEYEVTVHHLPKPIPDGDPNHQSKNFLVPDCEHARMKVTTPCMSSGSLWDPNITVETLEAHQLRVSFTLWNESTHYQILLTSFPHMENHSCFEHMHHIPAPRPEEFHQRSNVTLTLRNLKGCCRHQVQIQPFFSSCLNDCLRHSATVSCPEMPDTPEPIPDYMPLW

[3] = test system: WT C57BL/6 mice; assay: Intradermal injection of IL-17A into ears, epidermal hyperplasia; assay type: in vivo, mouse; settings: IL-17 plus A18 vs PBS-treated mice, RT-PCR
[4] = test system: WT C57BL/6 mice; assay: Adoptive transfer of OVA-specific TH2 cells, eosinophilic airway inflammation; assay type: in vivo, mouse; settings: RT-PCR
[5] = target: IL-17RA on IL-17RA–293 cells and HeLa cells (Homo sapiens, UniProt Q96F46); assay: Binding of biotinylated IL-17A to live cells, flow cytometry; assay type: cell-based; settings: A18 10 μM
IL-17RA on IL-17RA–293 cells and HeLa cells, sequence (Q96F46 33-866): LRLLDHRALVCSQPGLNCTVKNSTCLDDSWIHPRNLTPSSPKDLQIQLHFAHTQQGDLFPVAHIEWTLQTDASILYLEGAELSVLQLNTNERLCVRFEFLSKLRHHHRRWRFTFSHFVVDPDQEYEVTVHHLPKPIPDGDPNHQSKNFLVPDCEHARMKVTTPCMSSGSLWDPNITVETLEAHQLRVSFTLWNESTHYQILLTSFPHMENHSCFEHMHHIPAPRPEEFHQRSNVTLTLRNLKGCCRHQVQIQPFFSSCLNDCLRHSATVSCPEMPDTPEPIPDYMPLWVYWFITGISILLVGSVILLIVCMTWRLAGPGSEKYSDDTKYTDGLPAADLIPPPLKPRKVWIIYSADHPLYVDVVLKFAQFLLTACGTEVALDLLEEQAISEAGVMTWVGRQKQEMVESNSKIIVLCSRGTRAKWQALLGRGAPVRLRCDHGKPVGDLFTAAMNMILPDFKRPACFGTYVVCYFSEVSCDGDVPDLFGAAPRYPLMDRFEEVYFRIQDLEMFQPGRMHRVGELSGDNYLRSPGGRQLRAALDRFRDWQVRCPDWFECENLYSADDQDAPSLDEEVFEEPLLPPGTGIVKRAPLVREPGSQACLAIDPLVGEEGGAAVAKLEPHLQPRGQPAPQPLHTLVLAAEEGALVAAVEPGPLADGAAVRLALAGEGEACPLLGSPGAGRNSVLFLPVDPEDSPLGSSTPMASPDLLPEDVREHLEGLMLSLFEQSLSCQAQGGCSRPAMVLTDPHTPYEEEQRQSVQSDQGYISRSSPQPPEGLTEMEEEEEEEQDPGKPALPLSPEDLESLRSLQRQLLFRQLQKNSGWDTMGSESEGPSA

[6] = test system: IL-17E; assay type: cell-based, mouse; settings: IL-17RB–expressing MEFs, 24 hours
[7] = target: T1, IL-17RA D262A mutant (Homo sapiens, UniProt Q96F46, D293A); assay: Fluorescence quenching assay of A18 binding to labeled IL-17RA D262A mutant
T1 sequence (Q96F46 33-320 D293A): as the sequence (Q96F46 33-320 limits assumed) above, with D261A counted along it

[8] = test system: WT BALB/cJ mice; assay: Intranasal injection of IL-17E, pulmonary eosinophilia; assay type: in vivo; settings: A18 60 μg per mouse intranasally, 24 hours
[9] = test system: IL-17A; assay: IL-17A–stimulated cytokine and chemokine production in mouse cells; assay type: cell-based; settings: 24 hours, ELISA
[10] = test system: IL-17E; assay: IL-17E–stimulated CXCL1 production / target gene expression in HT29 cells; assay type: cell-based, human; settings: 24 hours
[11] = test system: IL-17A/IL-17F; assay: IL-17A/IL-17F–stimulated expression of target genes in cultured cells; assay type: cell-based
[12] = test system: WT C57BL/6J mice; assay: Adoptive transfer of MOG-specific TH17 cells to induce EAE; assay type: in vivo, mouse
[13] = test system: WT BALB/cJ mice; assay: Intranasal injection of IL-17A, pulmonary neutrophilia; assay type: in vivo; settings: A18 60 μg per mouse intranasally, 4 hours
[14] = test system: IL-17A; assay: IL-17A–mediated signaling events in HeLa cells; assay type: cell-based, human
[15] = target: T2, IL-17C/IL-17RE binding (Homo sapiens, UniProt Q8NFR9); assay: Ligand-receptor binding inhibition assay; settings: serial dilutions, purified proteins
T2 sequence (Q8NFR9 155-454): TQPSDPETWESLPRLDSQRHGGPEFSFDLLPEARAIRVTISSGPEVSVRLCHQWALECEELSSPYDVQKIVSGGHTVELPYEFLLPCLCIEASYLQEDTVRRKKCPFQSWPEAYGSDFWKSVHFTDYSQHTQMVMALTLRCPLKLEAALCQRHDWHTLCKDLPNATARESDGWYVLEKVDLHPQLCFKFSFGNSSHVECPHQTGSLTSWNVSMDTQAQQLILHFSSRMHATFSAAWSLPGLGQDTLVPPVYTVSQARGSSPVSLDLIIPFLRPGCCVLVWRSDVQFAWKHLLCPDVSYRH

[16] = test system: IL-17A; assay: IL-17A–stimulated cytokine and chemokine production in human cells; assay type: cell-based; settings: 24 hours, ELISA
[17] = test system: WT C57BL/6 mice; assay: HDM-induced severe asthma model; assay type: in vivo; settings: A18 120 μg per mouse i.p. days 13 and 14 plus 60 μg per mouse intranasally 1 hour before challenge
[18] = test system: IL-17F; assay: IL-17F–stimulated expression of target genes in cultured cells; assay type: cell-based
[19] = target: T3, IL-17E/IL-17RB binding (Homo sapiens, UniProt Q9NRM6); assay: Ligand-receptor binding inhibition assay; settings: serial dilutions, purified proteins
T3 sequence (Q9NRM6 18-289): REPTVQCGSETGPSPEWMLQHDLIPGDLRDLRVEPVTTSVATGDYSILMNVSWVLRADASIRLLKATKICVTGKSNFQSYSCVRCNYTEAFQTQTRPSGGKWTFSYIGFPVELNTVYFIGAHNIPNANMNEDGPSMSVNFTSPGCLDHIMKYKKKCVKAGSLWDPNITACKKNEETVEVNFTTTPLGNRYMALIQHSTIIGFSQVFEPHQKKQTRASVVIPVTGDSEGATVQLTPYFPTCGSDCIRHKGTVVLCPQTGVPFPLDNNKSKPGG

[20] = target: IL-17RA (Homo sapiens, UniProt Q96F46); assay: Surface plasmon resonance; assay type: binding; settings: immobilized IL-17RA on CM5 chip
IL-17RA, sequence (Q96F46 33-320 limits assumed): as the sequence (Q96F46 33-320 limits assumed) above

[21] = test system: WT C57BL/6 mice; assay: TPA-induced skin hyperplasia; assay type: in vivo, mouse; settings: dorsal skin, RT-PCR (Myc, Cxcl1, Steap4), day 7
[22] = test system: WT C57BL/6 mice; assay: Adoptive transfer of OVA-specific TH17 cells, neutrophilic airway inflammation; assay type: in vivo, mouse; settings: TH17 cell transfer, RT-PCR
[23] = target: T1, IL-17RA D262A mutant; assay: Microscale thermophoresis of IL-17A binding to IL-17RA D262A mutant; settings: read-out: binding affinity (Kd) of IL-17RA D262A for IL-17A, MST
[24] = target: human IL-17RA D262A mutant protein (soluble, secreted, hexahistidine-tagged) (human); assay: MST
[25] = target: T4, human IL-17RB-Fc (human, UniProt Q9NRM6 18-289); assay: ELISA
T4 sequence (looked up): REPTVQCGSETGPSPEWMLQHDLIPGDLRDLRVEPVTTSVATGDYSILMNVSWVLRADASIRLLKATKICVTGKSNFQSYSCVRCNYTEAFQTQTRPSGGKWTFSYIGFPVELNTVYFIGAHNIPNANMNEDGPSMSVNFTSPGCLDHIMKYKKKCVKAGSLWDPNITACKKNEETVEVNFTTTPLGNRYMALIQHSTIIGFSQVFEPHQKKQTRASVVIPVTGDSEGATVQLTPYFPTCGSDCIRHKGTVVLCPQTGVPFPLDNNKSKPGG

[26] = target: T5, human IL-17RE-Fc (human, UniProt Q8NFR9 155-454); assay: ELISA
T5 sequence (looked up): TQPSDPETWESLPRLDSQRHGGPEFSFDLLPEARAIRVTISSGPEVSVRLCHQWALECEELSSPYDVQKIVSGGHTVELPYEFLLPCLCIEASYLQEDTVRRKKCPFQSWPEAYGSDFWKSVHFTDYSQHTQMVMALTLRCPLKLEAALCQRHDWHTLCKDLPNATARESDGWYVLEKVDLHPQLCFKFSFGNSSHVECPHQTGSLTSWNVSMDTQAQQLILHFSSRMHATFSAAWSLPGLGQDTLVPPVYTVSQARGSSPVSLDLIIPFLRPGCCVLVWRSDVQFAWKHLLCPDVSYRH

[27] = TH17 cell–mediated EAE, flow cytometry

IL-17A/IL-17RA binding, sequence (Q96F46 33-322): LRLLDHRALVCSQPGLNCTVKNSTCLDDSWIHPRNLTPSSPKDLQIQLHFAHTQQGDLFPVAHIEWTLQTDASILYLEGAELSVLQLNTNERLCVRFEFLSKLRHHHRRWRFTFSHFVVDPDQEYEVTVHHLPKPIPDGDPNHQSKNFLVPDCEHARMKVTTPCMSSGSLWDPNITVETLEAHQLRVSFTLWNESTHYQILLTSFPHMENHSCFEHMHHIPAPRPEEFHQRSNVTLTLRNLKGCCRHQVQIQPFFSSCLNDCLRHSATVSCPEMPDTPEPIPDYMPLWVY

Molecule: Oc1cc(O)c2cc(O)c(-c3cc(O)c(O)c(O)c3)[o+]c2c1 [A10, delphinidin]
IC50 value compared to that of A18, IL-17A/IL-17RA binding ([1]; in words, relative to A18): slightly improved

Kd [2]: ~3 µM
binding of IL-17A to ectopically expressed or endogenous IL-17RA on live cells [5]: inhibited
IC50 [1]: 1.68 µM
Kd [7]: 6.35 µM
disruption of IL-17C/IL-17RE binding [15]: did not efficiently disrupt
disruption of IL-17E/IL-17RB binding [19]: did not efficiently disrupt
binding to IL-17RA by SPR [20]: confirmed the binding
Molecule: Oc1cc(O)c2cc(O)c(-c3ccc(O)c(O)c3)[o+]c2c1.[Cl-] [A18, 2-(3,4-dihydroxyphenyl)-3,5,7-trihydroxy-1-benzopyrylium chloride]
abundances of Myc, Cxcl1 and Steap4 mRNAs in the ears [3]: not substantially increased
expression of genes encoding TH2 cell–type cytokines in the lungs [4]: no effect
IL-17E–stimulated production of CXCL1 / expression of target genes [6]: limited inhibitory activity; also recorded: little effect
IL-17E–induced pulmonary eosinophilia [8]: did not inhibit
TH2 cell–associated gene expression in lung ([8]; IL-17E): did not inhibit
IL-17A–stimulated production of CXCL1 (KC), IL-6 and CXCL2 (MIP-2) [9]: substantially inhibited
IL-17E–stimulated production of CXCL1 / expression of target genes [10]: limited inhibitory activity; also recorded: little effect
IL-17A/IL-17F–stimulated expression of target genes [11]: inhibited
EAE disease severity (peak and remission stages) after cessation of A18 ([12]; A18 withdrawn on day 15, compared with mice never treated with A18): substantially reduced
numbers of CD4+CD25+Foxp3+ Treg cells in lymphoid organs or CNS ([12]; EAE recovery phase (day 20)): did not affect
demyelination in the spinal cords ([12]; TH17 cell–mediated EAE): diminished demyelination
expression of IL-17A target genes ([12]; TH17 cell–mediated EAE): reduced expression
infiltration into the brains of CD4+ T cells, CD8+ T cells or F4/80+ macrophages [12, 27]: no effect
recruitment of Ly6G+ neutrophils into the brains [12, 27]: substantially reduced
IL-17A–induced pulmonary neutrophilia [13]: substantially inhibited
expression of IL-17A target genes (Cxcl1, Il6, Ccl11) in lung [13]: substantially inhibited
IL-17A–mediated recruitment of Act1 to IL-17RA ([14]; 10 μM A18): decreased
IL-17A–mediated phosphorylation of IκBα, JNK, p38 and ERK1/2 ([14]; pretreated 1 hour with 10 μM A18): decreased
IL-17A–stimulated production of CXCL1 (GROα), IL-6 and IL-8 [16]: substantially inhibited
HDM-induced AHR [17]: substantially reduced
HDM-induced inflammatory gene expression in the lungs [17]: substantially reduced
HDM-induced neutrophilia [17]: substantially reduced
IL-17F–stimulated expression of target genes [18]: inhibited
TPA-induced expression of target genes [21]: substantially reduced
inflammatory gene expression in the lungs [22]: substantially reduced

IC50 ([1]; read-out: IC50, inhibition of IL-17A/IL-17RA binding, in vitro ligand-receptor binding inhibition assay, purified proteins): 6.88 µM
Molecule: OC[C@H]1O[C@@H](Oc2cc3c(O)cc(O)cc3[o+]c2-c2ccc(O)c(O)c2)[C@H](O)[C@@H](O)[C@@H]1O [cyanidin-3-O-glucoside]

IC50 [1]: 6.75 µM
Molecule: Oc1cc(O)c2ccc(-c3ccc(O)c(O)c3)[o+]c2c1 [luteolinidin]

IC50 [1]: > 100 µM
Molecule: Oc1ccc(-c2[o+]c3cc(O)cc(O)c3cc2O)cc1 [pelargonidin]

Kd [23]: 1.57 µM
Molecule: IL-17A: purified recombinant human interleukin-17A, cytokine ligand of IL-17RA

Kd [24]: 1.57 µM
Molecule: purified recombinant human IL-17A (from UniProt Q16552 24-155) (ligand)

binding result [25]: binds
B1: purified recombinant human IL-17E (IL-25) (ligand, UniProt Q9H293 33-177, looked up)
chain: YSHWPSCCPSKGQDTSEELLRWSTVPVPPLEPARPNRHPESCRASEDGPLNSRAISPWRYELDRDLNRLPQDLYHARCLCPHCVSLQTGSHMDPRGNSELLYHNQTVFYRRPCHGEKGTHKGYCLERRLYRVSLACVCVRPRVMG

binding result [26]: binds
B2: purified recombinant human IL-17C (ligand, UniProt Q9P0M4 19-197, looked up)
chain: HHDPSLRGHPHSHGTPHCYSAEELPLGQAPPHLLARGAKWGQALPVALVSSLEAASHRGRHERPSATTQCPVLRPEEVLEADTHQRSISPWRYRVDTDEDRYPQKLAFAECLCRGCIDARTGRETAALNSVRLLQSLLVLRRRPCSRDGSGLPTPGAFAFHTEFIHVPVGCTCVLPRSV
